Where “and” joins values, the source holds several entries; their conditions need not be identical. Equal entries are not always repeated.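 Five compound concentrations were applied to cells in 96-well plates for 48 hours; endpoints were derived by simple linear interpolation of the resulting dose-response curve. GI50 = concentration required for 50% inhibition of growth. At the TGI there is no net growth.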
Experiments:
Experiment in all cases: DTP human tumour cell line panel, 48 h
786-0 renal = system: 786-0 renal
SK-MEL-28 melanoma = system: SK-MEL-28 melanoma
SF-539 CNS = system: SF-539 CNS
SR leukemia = system: SR leukemia
OVCAR-8 ovarian = system: OVCAR-8 ovarian
NCI-H226 lung = system: NCI-H226 lung
UO-31 renal = system: UO-31 renal
HCT-15 colon = system: HCT-15 colon
HCT-116 colon = system: HCT-116 colon
NCI-H522 lung = system: NCI-H522 lung

| Compound | GI50 (786-0 renal) | TGI (786-0 renal) | GI50 (SK-MEL-28 melanoma) | TGI (SK-MEL-28 melanoma) | GI50 (SF-539 CNS) | TGI (SF-539 CNS) | GI50 (SR leukemia) [µM] | TGI (SR leukemia) [µM] | GI50 (OVCAR-8 ovarian) | TGI (OVCAR-8 ovarian) | GI50 (NCI-H226 lung) | TGI (NCI-H226 lung) | GI50 (UO-31 renal) [µM] | TGI (UO-31 renal) | GI50 (HCT-15 colon) | TGI (HCT-15 colon) | GI50 (HCT-116 colon) | TGI (HCT-116 colon) | GI50 (NCI-H522 lung) | TGI (NCI-H522 lung) |
| --- | --- | --- | --- | --- | --- | --- | --- | --- | --- | --- | --- | --- | --- | --- | --- | --- | --- | --- | --- | --- |
| Cc1cc(S(=O)(=O)/N=C(/N)Nc2ccccc2O)c(SCc2ccccc2)cc1Cl | 18.6 µM | 35 µM | 18.6 µM | 43.9 µM | 10.4 µM | 24.7 µM | 5.79 | > 100 | 12.9 µM | 36 µM | 33.1 µM | > 100 µM | 6.99 | 25.7 µM | 12.1 µM | 28 µM | 15.1 µM | 31.4 µM | 9.68 µM | 27.1 µM |
| FC(F)(F)c1ccc(-c2cnc(-c3ncon3)nc2NC2CCCCCC2)cc1 | 63.6 µM | > 100 µM | 99.2 µM | > 100 µM | > 100 µM | > 100 µM | 20.4 | 56.8 | 32.2 µM | > 100 µM | 43.1 µM | > 100 µM | 26.4 | > 100 µM | 34.3 µM | > 100 µM | 33.9 µM | > 100 µM | 14.2 µM | 82.6 µM |
| Nc1nc(OCc2ccccc2)c2[nH]cnc2n1 | 40.1 µM and 27.8 µM | 400 µM and 96.9 µM | 46.7 µM and 62.9 µM | 400 µM and 293 µM | 30 µM and 31.4 µM | 266 µM and 154 µM | 36.6 | – | 64.8 µM and 63 µM | 400 µM and 492 µM | 36.8 µM and 16.3 µM | 119 µM and 82 µM | 17.1 | 82 µM and 82.2 µM | 25.5 µM and 21.7 µM | 400 µM and 222 µM | 34.7 µM and 34.5 µM | 209 µM and 137 µM | 23.6 µM and 16.5 µM | 135 µM and 69.4 µM |
| O=S(=O)(Nc1cc(Sc2cccc3cccnc23)c(O)c2ccccc12)c1ccc(F)cc1 | 1.19 µM | 6.85 µM | 1.56 µM | 4.16 µM | 2.04 µM | 5.99 µM | 0.465 | 7.63 | 0.645 µM | 10.3 µM | 3.24 µM | 19 µM | 1.09 | 4.75 µM | 0.461 µM | 3.16 µM | 0.604 µM | 2.13 µM | 1.4 µM | 3.9 µM |
| CCc1ccc2c(c1)N(CCO)C1=C(C(=O)OC1)C2c1cccc(Br)c1 (centres undefined) | 0.617 µM | 14.7 µM | 0.473 µM | 14.3 µM | 0.458 µM | 10.1 µM | 0.409 | 20.3 | 0.847 µM | 19.6 µM | 0.988 µM | 13.2 µM | 1.05 | 18.1 µM | 0.584 µM | 15.8 µM | 0.449 µM | 14 µM | 0.173 µM | 2.06 µM |
| CC(=O)/C=C/c1cn(C(=O)OC(C)(C)C)c2ccc(Br)cc12 | 11.8 µM | 25.3 µM | 25.9 µM | > 68.1 µM | 12.8 µM | 26 µM | 71.6 | > 100 | 16.2 µM | 39 µM | 11.7 µM | 28.7 µM | 10.3 | 51.9 µM | 20.9 µM | > 100 µM | 8.39 µM | 21.6 µM | 17.7 µM | 63.3 µM |

Reference: PubChem BioAssay (NCI)
